# Measured values published in patent publication US4992426A, “Antiparasitic 5'-sulfamoyl nucleosides” (Nucleic Acid Research Institute, priority 1989, dated 1991).
# “Also recorded” adds a separate entry of the source.
# Legend:
# [1] = background; cited from earlier work
# [2] = system: certain parasites; details: background; cited from earlier work
# [3] = system: Leishmania donovani; assay: In vitro antiparasitic activity against Leishmania donovani; type: cell-based; details: for IC50: Leishmania donovani, 120 h, 5 days at 26° C., read-out: ED50 (the source's name)
# Experimental: (§1) The antiparasitic activities of the 1-(5'-0-sulfamoyl-β-D-ribofuranosyl)[1,2,4]triazolo 3-carboxamide, 3-thiocarboxamide and 3-carbonitrile compounds of the invention are shown in various in vitro and in vivo systems. […] These are representative of the protozoan diseases: leishmaniasis, trypanosomiasis, giardiasis and trichomoniasis.
# (§2) Leishmania donovani (ATCC #30142)) and Trypanosoma qambiense (TH114, obtained from R. Brun, Schweizer Tropeninstitut, Basel, Switzerland) were grown in THOSMEM, HOSMEM and PPDM-79 media respectively as described in J. J. Marr, R. L. Berens and D. J. Nelson, J. Science. 202, 1018 (1978), J. J. Marr, D. J. Nelson and R. L. Berens, Biochim. Biophys. Acta, 544, 360 (1978) and W. R. Fish, J. J. Marr and R. L. Berens, Biochim. Biophys. Acta, 714, 422 (1982). For drug sensitivity studies these organisms were grown in 10 ml of their respective media in 25 cm^2 tissue culture flasks. Cultures were inoculated to a cell density of […] and incubated for 5 days at 26° C. in a 5% CO2 atmosphere. Final cell density was determined by counting the cells on a Coulter Counter (Model ZBI); control cultures reached a final density of ≈2·10^7 /ml.
# (§3) Drug stock solutions were prepared by dissolving the compounds of the invention in 0.1N NaOH and adjusting the final concentration to 2 mg/ml based on extinction coefficient. Drug was added to respective culture media (<2% v/v) and the media filter sterilized. Doses effective against 50% (ED50) and 90% (ED90) were determined by triplicate counting of organisms exposed to various drug concentrations and determining a mean value. Results were expressed as a percentage control.
# [4] = system: Leishmania donovani, Trypanosoma qambiense, Giardia lamblia and Trichomonas vaqinalis; assay: In vitro antiparasitic activity against various pathogens (overall); type: cell-based; details: compounds 2, 3 and 4 compared
# Experimental: as §1
# Leishmania donovani (ATCC #30142)) and Trypanosoma qambiense (TH114, obtained from R. Brun, Schweizer Tropeninstitut, Basel, Switzerland) were grown in THOSMEM, HOSMEM and PPDM-79 media respectively as described in J. J. Marr, R. L. Berens and D. J. Nelson, J. Science. 202, 1018 (1978), J. J. Marr, D. J. Nelson and R. L. Berens, Biochim. Biophys. […] Final cell density was determined by counting the cells on a Coulter Counter (Model ZBI); control cultures reached a final density of ≈2·10^7 /ml.
# Giardia lamblia (PI, ATCC #30888) and Trichomonas vaqinalis (ATCC #3301) were grown in modified TYI medium in 13×100 mm screw cap tubes as described in R. L. Berens and J. J. Marr, Biochem. Pharm., 35, 4191 (1986). […] These parasites were counted by chilling tubes on ice for 30 min., then reading the optical density at 650 nm in a Gilford 300-N micro-sample spectrophotometer. Their cell number was obtained by comparing the absorbance to a standard curve constructed from numbers obtained by counting cells in a hemocytometer. […]
# [5] = system: Giardia lamblia; assay: In vitro antiparasitic activity against Giardia lamblia; type: cell-based; details: for IC50: Giardia duodenalis, 72 h, 3 days at 37° C., read-out: ED50 (the source's name); for relative activity against G. lamblia (in words): compared with compound 2
# Experimental: as §1
# (§4) Giardia lamblia (PI, ATCC #30888) and Trichomonas vaqinalis (ATCC #3301) were grown in modified TYI medium in 13×100 mm screw cap tubes as described in R. L. Berens and J. J. Marr, Biochem. Pharm., 35, 4191 (1986). Cultures were inoculated at a density of 10^4 and incubated for 3 days at 37° C.; control cultures reached densities of ≈1-2·10^6 for G. lamblia and ≈6-7·10^6 for T. vaqinalis. These parasites were counted by chilling tubes on ice for 30 min., then reading the optical density at 650 nm in a Gilford 300-N micro-sample spectrophotometer. Their cell number was obtained by comparing the absorbance to a standard curve constructed from numbers obtained by counting cells in a hemocytometer.
# as §3
# [6] = system: Trypanosoma gambiense; assay: In vitro antiparasitic activity against Trypanosoma gambiense; type: cell-based; details: for IC50: Trypanosoma brucei, GAMBIENSE, 120 h, 5 days at 26° C., read-out: ED50 (the source's name)
# Experimental: as §1, §2, §3
# [7] = Toxicity to U937 cells; type: cell-based; details: human, u937 cells; @ 1μg/ml; read-out: % Control (U937 cells)
# [8] = system: U937 cells; assay: Toxicity to U937 cells; type: cell-based; details: 1μg/ml
# [9] = system: Trichomonas vaginalis; assay: In vitro antiparasitic activity against Trichomonas vaginalis; type: cell-based; details: for IC50: Trichomonas vaginalis, 72 h, 3 days at 37° C., read-out: ED50 (the source's name)
# Experimental: as §1, §4, §3
# [10] = system: T. brucei EATRO 110; assay: Antiparasitic activity against T. brucei EATRO 110 in animals (mouse model); type: in vivo, Trypanosoma brucei; details: mice; for % Cured / Average Survival / Range of Survival: once daily for 3 days
# Experimental: Antiparasitic activity of the compounds of the invention in animals against T. brucei EATRO 110 was determined as described in C. J. Bacchi, R. L. Berens, H. C. Nathan, R. S. Klein, I. A. Elegbe, K. V. Rao, P. P. McCann and J. J. Marr, Antimicrob: Agents Chemother., 31, 1403 (1987) utilizing the mouse model described therein.
# Mice (groups of 5) were infected with 2 × 10^5 trypanosomes and
# treatment commenced 24 h post inoculation. Drugs were given once daily by
# the route indicated for 3 days.
# [11] = system: L. donovani; assay: Antileishmanial activity in animals (mouse model of visceral leishmaniasis); type: in vivo, Leishmania donovani; details: mice; for LDUs in Liver / Suppression (%): one week
# Experimental: Antiparasitic activity of the compounds of the invention in animals against L. donovani was determined in a manner similar to that previously described J. S. Keithly and S. G. Langreth, Amer. J. Trop. Med. Hyg., 32, 485 (1983) for a hamster model. Briefly, mice were infected with 5×10^7 stationary phase promastigotes subcultured in Schneider's drosophila medium with 15% heat inactivated fetal bovine serum. The compounds of the invention were administered by gavage nine days after infection and continued for one week. Positive controls received Pentostam intraperitoneally. Infected, untreated controls received water orally but no intraperitoneal sham injections. Mice were necropsied sixteen days after infection (seven days after the beginning of drug treatment).
# % Suppression = 100 100(LDUs of experimental/LDUs of control)
# [12] = background; cited from earlier work; remark: listed apart in the source
# [13] = system: adenosine kinase; details: certain human cell lines in-vitro; cited from earlier work
compound,measurement,setting,value
Nc1ncnc2c1ncn2[C@@H]1O[C@H](COS(N)(=O)=O)[C@@H](O)[C@H]1O [5'-O-sulfamoyl adenosine],toxicity (in words),[1],extremely toxic
same,antiparasitic activity (in words),[2],active in-vitro against certain parasites
"NC(=O)c1ncn([C@@H]2O[C@H](COS(N)(=O)=O)[C@@H](O)[C@H]2O)n1 [Compound 2, 1-(5'-O-Sulfamoyl-β-D-ribofuranosyl)[1,2,4]triazole-3-carboxamide]",antileishmanial activity in vitro (in words),[3],significant activity as an antileishmanial agent
same,IC50,[3],0.03 µg/mL
same,relative antiparasitic activity in vitro (in words),[4],the most active and had the lowest ED50 against these organisms
same,IC50,[5],5 to 10 µg/mL
same,activity against T. gambiense (in words),[6],shows antitrypanosomal activity; also recorded: killed by low concentrations
same,IC50,[6],0.01 to 0.05 µg/mL
same,viability,[7],10%
same,toxicity to U937 cells (in words),[8],toxic
same,IC50,[9],> 25 µg/mL
same,% Cured,[10]; 1 mg/kg (i.p.),0%
same,Average Survival,[10]; 1 mg/kg (i.p.),4.6 days
same,Range of Survival,[10]; 1 mg/kg (i.p.),4 to 5 days
same,% Cured,[10]; 5 mg/kg (i.p.),0%
same,Average Survival,[10]; 5 mg/kg (i.p.),4.8 days
same,Range of Survival,[10]; 5 mg/kg (i.p.),4 to 6 days
same,% Cured,[10]; 10 mg/kg (i.p.),0%
same,Average Survival,[10]; 10 mg/kg (i.p.),7.4 days
same,Range of Survival,[10]; 10 mg/kg (i.p.),4 to 11 days
same,% Cured,[10]; 20 mg/kg (i.p.),0%
same,Average Survival,[10]; 20 mg/kg (i.p.),7.4 days
same,Range of Survival,[10]; 20 mg/kg (i.p.),4 to 11 days
same,% Cured,[10]; 50 mg/kg (i.p.),0%
same,Average Survival,[10]; 50 mg/kg (i.p.),6.4 days
same,Range of Survival,[10]; 50 mg/kg (i.p.),4 to 10 days
same,% Cured,[10]; 50 mg/kg (i.v.),0%
same,Average Survival,[10]; 50 mg/kg (i.v.),6.4 days
same,Range of Survival,[10]; 50 mg/kg (i.v.),4 to 12 days
same,% Cured,[10]; 50 mg/kg (p.o.),0%
same,Average Survival,[10]; 50 mg/kg (p.o.),11.6 days
same,Range of Survival,[10]; 50 mg/kg (p.o.),10 to 14 days
same,activity against T. brucei in animals (in words),"[10]; i.p., i.v., oral","exhibits this activity when administered orally; also recorded: shows intraperitoneal, intravenous and oral activity; also recorded: oral activity of compound 2 is greater than intraperitoneal activity; also recorded: prolonged survival at all dosages tested"
same,LDUs in Liver,"[11]; 10 mg/kg/day, gavage",1244 ± 469 LDUs
same,Suppression (%),"[11]; 10 mg/kg/day, gavage",18%
same,LDUs in Liver,"[11]; 20 mg/kg/day, gavage",765 ± 133 LDUs
same,Suppression (%),"[11]; 20 mg/kg/day, gavage",50%
same,LDUs in Liver,"[11]; 50 mg/kg/day, gavage",501 ± 276 LDUs
same,Suppression (%),"[11]; 50 mg/kg/day, gavage",67%
same,antileishmanial activity in animals (in words),[11]; compared with Pentostam,good suppression of the parasites in the livers; also recorded: response equivalent to that of optimized Pentostam; also recorded: as active as Pentostam; also recorded: as active as pentavalent antimony
"NC(=S)c1ncn([C@@H]2O[C@H](COS(N)(=O)=O)[C@@H](O)[C@H]2O)n1 [Compound 3, 1-(5'-O-Sulfamoyl-β-D-ribofuranosyl)[1,2,4]triazole-3-thiocarboxamide]",IC50,[3],2.5 µg/mL
same,IC50,[5],> 25 µg/mL
same,relative activity against G. lamblia (in words),[5],about the same as for compound 2
same,IC50,[6],0.5 µg/mL
same,IC50,[9],15 µg/mL
same,relative activity against T. vaginalis (in words),[9]; compared with compounds 2 or 4,greater activity; also recorded: greater activity than compounds 2 or 4
"N#Cc1ncn([C@@H]2O[C@H](COS(N)(=O)=O)[C@@H](O)[C@H]2O)n1 [Compound 4, 1-(5'-0-Sulfamoyl-β-D-ribofuranosyl)[1,2,4]triazole-3-carbonitrile]",IC50,[3],1 to 5 µg/mL
same,IC50,[5],> 25 µg/mL
same,relative activity against G. lamblia (in words),[5],about the same as for compound 2
same,IC50,[6],1 to 5 µg/mL
same,IC50,[9],> 25 µg/mL
"O.O.O.O.O.O.O.O.O.O=C([O-])[C@@H]1[O][Sb](=[O])([O][Sb]2(=[O])[O][C@H]([C@H](O)CO)[C@H](O)[C@H](C(=O)[O-])[O]2)[O][C@H]([C@H](O)CO)[C@@H]1O.[Na+].[Na+].[Na+] (stereo partly drawn) [Pentostam, reference compound]",LDUs in Liver,"[11]; 50 mg/kg/day, intraperitoneal",411 ± 245 LDUs
same,Suppression (%),"[11]; 50 mg/kg/day, intraperitoneal",73%
"NC(=O)c1ncn([C@@H]2O[C@H](CO)[C@@H](O)[C@H]2O)n1 [Ribavirin, 1-(β-D-Ribofuranosyl)[1,2,4]triazole-3-carboxamide]",toxicity (in words),[1],relatively non-toxic
same,antiparasitic activity (in words),[2],does not have antiparasitic activity
same,antiviral activity (in words),[12],broad spectrum antiviral agent
same,substrate for adenosine kinase (in words),[13],substrate for adenosine kinase
